Drawing on PubChem BioAssay (NCI), this text covers TGI and GI50 for 13 compounds.

Test systems include SK-OV-3 ovarian; OVCAR-8 ovarian; SK-MEL-5 melanoma; NCI-H23 lung; HCT-116 colon; RXF 393 renal; U251 CNS; 786-0 renal; HT29 colon; A549 NSCLC.
Assay in all cases: growth of human tumour cells (NCI), 48 h

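The compound was tested at five concentrations on cells cultured in 96-well plates, with a 48-hour exposure period. Abbreviation: GI50, concentration required for 50% inhibition of growth. TGI denotes the concentration required for complete inhibition of growth.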

Consider `Cc1cccc2c1NC(c1c(C)[nH]c3ccccc13)C2` (centres undefined), for which the TGI in the experiment with SK-OV-3 ovarian, with OVCAR-8 ovarian, with SK-MEL-5 melanoma, in the experiment with NCI-H23 lung, in the experiment on HCT-116 colon and in the experiment with RXF 393 renal was over 100 µM throughout. In addition, the TGI with U251 CNS, in the experiment on 786-0 renal, with HT29 colon and in the experiment with A549 NSCLC was over 100 µM each time.

Turning to `Cn1c(=O)c(C2c3ccccc3Oc3c2c(=O)n(C)c2ccccc32)c(O)c2ccccc21` (centres undefined), the TGI in the experiment with SK-OV-3 ovarian, in the experiment with OVCAR-8 ovarian, in the experiment with SK-MEL-5 melanoma, with NCI-H23 lung, in the experiment on HCT-116 colon and with RXF 393 renal was over 100 µM each time. The TGI with U251 CNS, in the experiment with 786-0 renal, in the experiment with HT29 colon and with A549 NSCLC was over 100 µM in each case.

As to `CC(=O)c1c[nH]c2ccc(-c3ccnc(Nc4ccc(NC(=O)c5cccc(F)c5)c(CN5CCOCC5)c4)n3)cc12`, the GI50 was 0.562 µM with SK-OV-3 ovarian; 255 nM with OVCAR-8 ovarian; 135 nM in the experiment on SK-MEL-5 melanoma; 0.195 µM in the experiment on NCI-H23 lung; 60.8 nM in the experiment on HCT-116 colon; 22.1 nM in the experiment with RXF 393 renal. The GI50 with U251 CNS is 218 nM; with 786-0 renal, 0.157 µM; in the experiment with HT29 colon, 146 nM; with A549 NSCLC, 185 nM. Besides, the TGI is over 100 µM in the experiment on SK-OV-3 ovarian; over 100 µM with OVCAR-8 ovarian; 0.463 µM with SK-MEL-5 melanoma; 1.09 µM in the experiment on NCI-H23 lung; 14.7 µM in the experiment on HCT-116 colon; 0.054 µM with RXF 393 renal. Besides, the TGI in the experiment with U251 CNS was over 21 µM; in the experiment on 786-0 renal it was over 26.2 µM; in the experiment with A549 NSCLC, over 35.5 µM.

Turning to `NS(=O)(=O)OC[C@H]1O[C@@H](n2cnc3c(N[C@H]4CCc5ccccc54)ncnc32)[C@H](O)[C@@H]1O`, the GI50 was 0.234 µM in the experiment with SK-OV-3 ovarian; 86.5 nM with OVCAR-8 ovarian; 36.9 nM with SK-MEL-5 melanoma; 0.185 µM in the experiment with NCI-H23 lung; 21.3 nM with HCT-116 colon; 258 nM with RXF 393 renal. In addition, the GI50 is 35.3 nM with U251 CNS, 0.0799 µM with 786-0 renal, 327 nM in the experiment with HT29 colon and 871 nM in the experiment on A549 NSCLC. For the same compound, the TGI with SK-OV-3 ovarian is 0.644 µM; with OVCAR-8 ovarian, 1.02 µM; in the experiment on SK-MEL-5 melanoma, 0.151 µM; with NCI-H23 lung, 1.26 µM; in the experiment with HCT-116 colon, 0.114 µM; in the experiment with RXF 393 renal it was 0.506 µM. In addition, the TGI with U251 CNS worked out at 0.121 µM; in the experiment with 786-0 renal, 0.373 µM; in the experiment on HT29 colon, 5.55 µM; with A549 NSCLC, 3 µM.

Regarding `CN1CCN(c2nc(NCCNc3ccnc4cc(Cl)ccc34)c3ccccc3n2)CC1`, the GI50 in the experiment on SK-OV-3 ovarian was 3.18 µM; in the experiment with OVCAR-8 ovarian it was 2120 nM; in the experiment on SK-MEL-5 melanoma, 1720 nM; in the experiment on NCI-H23 lung, 3.64 µM; with HCT-116 colon, 448 nM; in the experiment on RXF 393 renal it was 1460 nM. Moreover, the GI50 in the experiment on U251 CNS is 2300 nM; in the experiment with 786-0 renal, 2.33 µM; in the experiment on HT29 colon, 699 nM; in the experiment with A549 NSCLC it was 1440 nM. For the same compound, the TGI in the experiment on SK-OV-3 ovarian amounted to 11.7 µM; in the experiment with OVCAR-8 ovarian it was 5.75 µM; with SK-MEL-5 melanoma it was 3.12 µM; in the experiment on NCI-H23 lung, 15.2 µM; in the experiment with HCT-116 colon, 7.62 µM; in the experiment with RXF 393 renal, 3.46 µM. The TGI in the experiment on U251 CNS amounted to 10.1 µM; with 786-0 renal, 10 µM; in the experiment on HT29 colon it was 4.18 µM; with A549 NSCLC, 5.97 µM.

On to `O=C1C=Cc2cc3ccccc3c3cccc1c23`, for which the GI50 in the experiment with SK-OV-3 ovarian was 19.5 µM; in the experiment on OVCAR-8 ovarian it was 3300 nM; in the experiment on SK-MEL-5 melanoma it was 2730 nM; with NCI-H23 lung, 2.57 µM; in the experiment with HCT-116 colon, 3160 nM; in the experiment on RXF 393 renal it was 2710 nM. Further, the GI50 with U251 CNS was 4380 nM; in the experiment on 786-0 renal, 4.29 µM; in the experiment with HT29 colon it was 7290 nM; in the experiment with A549 NSCLC it was 1430 nM. In addition, the TGI in the experiment on SK-OV-3 ovarian is over 100 µM; in the experiment on OVCAR-8 ovarian, 16.7 µM; in the experiment on SK-MEL-5 melanoma, 5.87 µM; in the experiment on NCI-H23 lung it was 9.95 µM; in the experiment with HCT-116 colon it was over 100 µM; in the experiment with RXF 393 renal, 8.62 µM. Besides, the TGI is 43.1 µM in the experiment with U251 CNS, over 100 µM in the experiment with 786-0 renal, over 100 µM in the experiment on HT29 colon and 22.8 µM in the experiment on A549 NSCLC.

In the case of `N=C(N)c1ccc(-c2ccc(-c3ccco3)o2)cc1`, the GI50 with SK-OV-3 ovarian is 9.21 µM; in the experiment on OVCAR-8 ovarian, 8220 nM; in the experiment on SK-MEL-5 melanoma, 2670 nM; with NCI-H23 lung, 11 µM; with HCT-116 colon, 3040 nM; in the experiment with RXF 393 renal, 4680 nM. Also, the GI50 with U251 CNS was 2920 nM; with 786-0 renal it was 3.93 µM; in the experiment on HT29 colon, 2780 nM; with A549 NSCLC it was 4760 nM. The TGI in the experiment on SK-OV-3 ovarian turned out to be 21.2 µM; in the experiment with OVCAR-8 ovarian, 30.7 µM; in the experiment with SK-MEL-5 melanoma it was 9.76 µM; in the experiment on NCI-H23 lung it was 26.6 µM; in the experiment with HCT-116 colon, 10.3 µM; in the experiment on RXF 393 renal, 18.4 µM. Further, the TGI in the experiment on U251 CNS is 11.8 µM; with 786-0 renal, 17.1 µM; with HT29 colon it was 8.47 µM; in the experiment with A549 NSCLC it was 18.9 µM.

In the case of `CCC(C)CNC1=C(NC(C)=O)C(=O)c2ccccc2C1=O` (centres undefined), the TGI with SK-OV-3 ovarian, with OVCAR-8 ovarian, with SK-MEL-5 melanoma, in the experiment on NCI-H23 lung, with HCT-116 colon and in the experiment with RXF 393 renal was over 100 µM each time. Besides, the TGI in the experiment on U251 CNS, with 786-0 renal, in the experiment on HT29 colon and in the experiment on A549 NSCLC was over 100 µM in each case.

With `CC(C)=CCNc1ncnc2c1ncn2C1OC(COP(=O)(O)O)C(O)C1O` (centres undefined), the GI50 is 4.77 µM in the experiment with SK-OV-3 ovarian; 1600 nM in the experiment on OVCAR-8 ovarian; over 73700 nM in the experiment with SK-MEL-5 melanoma; 6.68 µM with NCI-H23 lung; 2070 nM with HCT-116 colon; 2380 nM with RXF 393 renal. Further, the GI50 is over 100000 nM in the experiment on U251 CNS, 5.82 µM in the experiment with 786-0 renal, 3740 nM in the experiment with HT29 colon and 7390 nM with A549 NSCLC. Further, the TGI was over 100 µM in the experiment with SK-OV-3 ovarian; 3.64 µM with OVCAR-8 ovarian; over 100 µM in the experiment with SK-MEL-5 melanoma; over 100 µM in the experiment with NCI-H23 lung; 25.5 µM in the experiment with HCT-116 colon; 8.98 µM in the experiment with RXF 393 renal. For the same compound, the TGI with U251 CNS is over 100 µM; with 786-0 renal, over 79.6 µM; in the experiment on HT29 colon, 42.5 µM; in the experiment with A549 NSCLC, over 100 µM.

In the case of `COC1=C(C(=O)OC(C)(C)C)C23CCCCC2(C(C(=O)OC(C)(C)C)=C(OC)C3C(=O)OC(C)(C)C)C1C(=O)OC(C)(C)C` (centres undefined), the TGI is over 100 µM in the experiment with SK-OV-3 ovarian; over 100 µM with OVCAR-8 ovarian; 36 µM with SK-MEL-5 melanoma; over 100 µM in the experiment with NCI-H23 lung; over 100 µM in the experiment on HCT-116 colon; over 100 µM in the experiment on RXF 393 renal. Moreover, the TGI in the experiment on U251 CNS, in the experiment with 786-0 renal, in the experiment on HT29 colon and with A549 NSCLC was over 100 µM in each case.

Turning to `COC(=O)C1=C(O)C(C(=O)OC)[C@@]2(O)[C@@H](C(=O)OC)C(c3ccccc3C(F)(F)F)C[C@@H]1[C@@H]2C(=O)OC` (some centres undefined), the GI50 is 1.58 µM in the experiment with SK-OV-3 ovarian; 10100 nM in the experiment on OVCAR-8 ovarian; 3460 nM with SK-MEL-5 melanoma; 3.44 µM in the experiment on NCI-H23 lung; 6340 nM in the experiment with HCT-116 colon; 3110 nM with RXF 393 renal. Besides, the GI50 is 2010 nM with U251 CNS, 4.49 µM with 786-0 renal, 228 nM with HT29 colon and 10400 nM with A549 NSCLC. In addition, the TGI in the experiment with SK-OV-3 ovarian is 7 µM; in the experiment with OVCAR-8 ovarian, 24.5 µM; in the experiment with SK-MEL-5 melanoma, 13.2 µM; in the experiment with NCI-H23 lung, 11.6 µM; in the experiment on HCT-116 colon it was 18.8 µM; in the experiment on RXF 393 renal, 7.65 µM. Also, the TGI in the experiment with U251 CNS was 7.28 µM; in the experiment on 786-0 renal, 16.4 µM; in the experiment with HT29 colon, 5.3 µM; with A549 NSCLC, 27 µM.

For `COc1cc(Oc2cnc3cc(N)cc(N)c3n2)cc(OC)c1OC`, the GI50 with SK-OV-3 ovarian is 91.2 µM; in the experiment with OVCAR-8 ovarian it was 58800 nM; in the experiment on SK-MEL-5 melanoma, 39500 nM; in the experiment with NCI-H23 lung it was 31.4 µM; in the experiment on HCT-116 colon, 19600 nM; with RXF 393 renal it was 25400 nM. Moreover, the GI50 is over 100000 nM in the experiment on U251 CNS, 33 µM in the experiment with 786-0 renal, 18500 nM with HT29 colon and over 100000 nM with A549 NSCLC. Besides, the TGI was over 100 µM in the experiment on SK-OV-3 ovarian; over 100 µM in the experiment with OVCAR-8 ovarian; over 100 µM with SK-MEL-5 melanoma; over 100 µM with NCI-H23 lung; 42.8 µM in the experiment on HCT-116 colon; 89.8 µM in the experiment on RXF 393 renal. The TGI was over 100 µM in the experiment with U251 CNS, over 100 µM in the experiment on 786-0 renal, 40.4 µM in the experiment with HT29 colon and over 100 µM in the experiment with A549 NSCLC.

In the case of `COc1ccccc1NC(=O)CC(=O)NNCC(=O)Nc1nc(-c2ccccc2)cs1`, the TGI with SK-OV-3 ovarian, in the experiment with OVCAR-8 ovarian, in the experiment with SK-MEL-5 melanoma, with NCI-H23 lung, in the experiment with HCT-116 colon and in the experiment with RXF 393 renal was over 100 µM in each case. For the same compound, the TGI with U251 CNS, in the experiment with 786-0 renal, in the experiment on HT29 colon and in the experiment with A549 NSCLC was over 100 µM in each case.
